Reference: US10053451B2, “Heterocyclic estrogen receptor modulators and uses thereof” (priority 2015, dated 2018)

Target: T1, estrogen receptor alpha (ESR1) (Homo sapiens, UniProt P03372)
T1 construct: MCF7 cells were trypsinized and washed twice; endogenous in cells; host or cells: MCF7 breast cancer cells
T1 sequence (P03372 1-595): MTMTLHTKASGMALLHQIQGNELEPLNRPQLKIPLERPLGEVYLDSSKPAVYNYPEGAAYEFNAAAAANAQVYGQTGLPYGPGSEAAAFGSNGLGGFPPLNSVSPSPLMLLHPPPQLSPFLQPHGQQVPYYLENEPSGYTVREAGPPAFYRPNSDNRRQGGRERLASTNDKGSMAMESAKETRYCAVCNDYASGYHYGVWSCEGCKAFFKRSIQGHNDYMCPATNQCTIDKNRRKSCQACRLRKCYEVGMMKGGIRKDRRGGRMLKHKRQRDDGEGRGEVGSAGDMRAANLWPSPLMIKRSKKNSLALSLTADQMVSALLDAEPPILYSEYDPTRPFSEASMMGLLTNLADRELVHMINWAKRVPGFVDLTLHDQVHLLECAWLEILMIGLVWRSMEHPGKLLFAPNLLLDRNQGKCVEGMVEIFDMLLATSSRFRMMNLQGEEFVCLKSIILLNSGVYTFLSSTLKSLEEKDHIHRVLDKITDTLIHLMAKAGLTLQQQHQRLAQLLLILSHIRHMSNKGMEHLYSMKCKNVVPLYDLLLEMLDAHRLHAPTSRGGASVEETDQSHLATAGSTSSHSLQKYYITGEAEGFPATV
Experiment: Breast Cancer Cell ERa High Content Fluorescence Imaging Assay (ER-alpha MCF7 Assay)
Type: cell-based
Conditions: MCF7 cells, 4 hours; plateau of maximal effect; DMSO = 0%, 5 nM Fulvestrant = 100% change in ESR1
Protocol: Cell plates were incubated at 37° C., for 4 hours. Fixation and permeabilization were carried out using a Biotek EL406 plate washer and dispenser as follows. […] Samples were incubated 30 minutes. Well contents was aspirated and 50 uL/well of Phosphate Buffered Saline (PBS) containing 0.5% w/v bovine serum albumen, 0.5% v/v Triton X-100 (Antibody Dilution Buffer) was added to each well. Samples were incubated for 30 minutes. Well contents were aspirated and washed 3 times with 100 uL/well of PBS. Immunofluorescence staining of estrogen receptor alpha (ESR1) was carried out using a Biotek EL406 plate washer and dispenser as follows. […] Samples were incubated for 2 hours at room temperature. Samples were washed 4 times with 100 uL/well of PBS. […] Samples were incubated for 2 hours at room temperature. Samples were washed 3 times with 100 uL/well of PBS using a Biotek EL406. Quantitative fluorescence imaging of ESR1 was carried out using a Cellomics Arrayscan V (Thermo). […] Channel 1 (DNA stain) was used to define the nuclear region (Circ). […] The “Robust Fit” method was used to define the inflexion point of curve (EC50) and the plateau of the maximal effect (Sinf).

ER-alpha MCF7 Sinf (%)	SMILES
96.6	CC1=C(C2=CC(=O)CC2)C(c2ccc(OCCN3CC(CF)C3)cc2)Oc2ccc(O)cc21 (stereo not drawn) [Example 45, 3-[2-[4-[2-[3-(fluoromethyl)azetidin-1-yl]ethoxy]phenyl]-6-hydroxy-4-methyl-2H-chromen-3-yl]cyclopent-2-en-1-one]
93.9	CC(C)=CC1=C(C)c2cc(O)ccc2OC1c1ccc(OCCN2CC(CF)C2)cc1 (stereo not drawn) [Example 16, 2-[4-[2-[3-(Fluoromethyl)azetidin-1-yl]ethoxy]phenyl]-4-methyl-3-(2-methylprop-1-enyl)-2H-chromen-6-ol]
93.7	CC(=O)N1CC=C(C2=C(C)c3cc(O)ccc3OC2c2ccc(OCCN3CC(CF)C3)cc2)C1 (stereo not drawn) [Example 20, 1-(3-(2-(4-(2-(3-(Fluoromethyl)azetidin-1-yl)ethoxy)phenyl)-6-hydroxy-4-methyl-2H-chromen-3-yl)-2,5-dihydro-1H-pyrrol-1-yl)ethanone]
95.4	CC1=C(c2cnc(N)nc2)C(c2ccc(OCCN3CC(CF)C3)cc2)Oc2ccc(O)cc21 (stereo not drawn) [Example 39, 3-(2-Amino-pyrimidin-5-yl)-2-{4-[2-(3-fluoromethyl-azetidin-1-yl)-ethoxy]-phenyl}-4-methyl-2H-chromen-6-ol]
98.7	CC1=C(C2=CCC(O)CC2)C(c2ccc(OCCN3CC(CF)C3)cc2)Oc2ccc(O)cc21 (stereo not drawn) [Example 21, 2-(4-(2-(3-(Fluoromethyl)azetidin-1-yl)ethoxy)phenyl)-3-(4-hydroxycyclohex-1-en-1-yl)-4-methyl-2H-chromen-6-ol]
93.9	CC1=C(CC(C)C)C(c2ccc(OCCN3CC(CF)C3)cc2)Oc2ccc(O)cc21 (stereo not drawn) [Example 17, 2-(4-(2-(3-(Fluoromethyl)azetidin-1-yl)ethoxy)phenyl)-3-isobutyl-4-methyl-2H-chromen-6-ol]
95.4	CC1=C(C2=CC(O)CC2)C(c2ccc(OCCN3CC(CF)C3)cc2)Oc2ccc(O)cc21 (stereo not drawn) [Example 47, 2-[4-[2-[3-(fluoromethyl)azetidin-1-yl]ethoxy]phenyl]-3-(3-hydroxycyclopenten-1-yl)-4-methyl-2H-chromen-6-ol]
99.4	CC1=C(c2ccncc2C)C(c2ccc(OCCN3CC(CF)C3)cc2)Oc2ccc(O)cc21 (stereo not drawn) [Example 32, 2-{4-[2-(3-Fluoromethyl-azetidin-1-yl)-ethoxy]-phenyl}-4-methyl-3-(3-methyl-pyridin-4-yl)-2H-chromen-6-ol]
97.1	CC1=C(C2=CCC(F)(F)CC2)C(c2ccc(OCCN3CC(CF)C3)cc2)Oc2ccc(O)cc21 (stereo not drawn) [Example 26, 3-(4,4-difluorocyclohex-1-en-1-yl)-2-(4-(2-(3-(fluoromethyl)azetidin-1-yl)ethoxy)phenyl)-4-methyl-2H-chromen-6-ol]
80	CC(=O)N1CCC(C2=C(C)c3cc(O)ccc3OC2c2ccc(OCCN3CC(CF)C3)cc2)C1 (stereo not drawn) [Example 19, 1-(3-(2-(4-(2-(3-(Fluoromethyl)azetidin-1-yl)ethoxy)phenyl)-6-hydroxy-4-methyl-2H-chromen-3-yl)pyrrolidin-1-yl)ethanone]
97.5	CC1=C(c2cnccc2C)C(c2ccc(OCCN3CC(CF)C3)cc2)Oc2ccc(O)cc21 (stereo not drawn) [Example 34, 2-{4-[2-(3-Fluoromethyl-azetidin-1-yl)-ethoxy]-phenyl}-4-methyl-3-(4-methyl-pyridin-3-yl)-2H-chromen-6-ol]
98.9	CC1=C(c2cncc(S(C)(=O)=O)c2)C(c2ccc(OCCN3CC(CF)C3)cc2)Oc2ccc(O)cc21 (stereo not drawn) [Example 41, 2-{4-[2-(3-Fluoromethyl-azetidin-1-yl)-ethoxy]-phenyl}-3-(5-methanesulfonyl-pyridin-3-yl)-4-methyl-2H-chromen-6-ol]
85.9	CNC(=O)N1CCC(C2=C(C)c3cc(O)ccc3OC2c2ccc(OCCN3CC(CF)C3)cc2)CC1 (stereo not drawn) [Example 31, 4-(2-(4-(2-(3-(fluoromethyl)azetidin-1-yl)ethoxy)phenyl)-6-hydroxy-4-methyl-2H-chromen-3-yl)-N-methylpiperidine-1-carboxamide]
94.7	CC1=C(c2cccc(O)c2)[C@H](c2cnn(CCCN3CC(CF)C3)c2)Oc2ccc(O)cc21 [Example 51, (R)-2-(1-(3-(3-(fluoromethyl)azetidin-1-yl)propyl)-1H-pyrazol-4-yl)-3-(3-hydroxyphenyl)-4-methyl-2H-chromen-6-ol]
91.8	CC1=C(c2cncc(C#N)c2)C(c2ccc(OCCN3CC(CF)C3)cc2)Oc2ccc(O)cc21 (stereo not drawn) [Example 44, 5-(2-{4-[2-(3-Fluoromethyl-azetidin-1-yl)-ethoxy]-phenyl}-6-hydroxy-4-methyl-2H-chromen-3-yl)-nicotinonitrile]
98.9	CC1=C(C2CCOC2)C(c2ccc(OCCN3CC(CF)C3)cc2)Oc2ccc(O)cc21 (stereo not drawn) [Example 29, 2-(4-(2-(3-(fluoromethyl)azetidin-1-yl)ethoxy)phenyl)-4-methyl-3-(tetrahydrofuran-3-yl)-2H-chromen-6-ol]
90.0	CC1=C(C2=CCNC2)C(c2ccc(OCCN3CC(CF)C3)cc2)Oc2ccc(O)cc21 (stereo not drawn) [Example 18, 3-(2,5-dihydro-1H-pyrrol-3-yl)-2-(4-(2-(3-(fluoromethyl)azetidin-1-yl)ethoxy)phenyl)-4-methyl-2H-chromen-6-ol]
90.3	CC1=C(c2cncnc2)C(c2ccc(OCCN3CC(CF)C3)cc2)Oc2ccc(O)cc21 (stereo not drawn) [Example 38, 2-{4-[2-(3-Fluoromethyl-azetidin-1-yl)-ethoxy]-phenyl}-4-methyl-3-pyrimidin-5-yl-2H-chromen-6-ol]
98.5	CC1=C(c2cccnc2C)C(c2ccc(OCCN3CC(CF)C3)cc2)Oc2ccc(O)cc21 (stereo not drawn) [Example 35, 2-{4-[2-(3-Fluoromethyl-azetidin-1-yl)-ethoxy]-phenyl}-4-methyl-3-(2-methyl-pyridin-3-yl)-2H-chromen-6-ol]
97.7	CC1=C(C2CCOCC2)C(c2ccc(OCCN3CC(CF)C3)cc2)Oc2ccc(O)cc21 (stereo not drawn) [Example 24, 2-(4-(2-(3-(fluoromethyl)azetidin-1-yl)ethoxy)phenyl)-4-methyl-3-(tetrahydro-2H-pyran-4-yl)-2H-chromen-6-ol]
97.3	CC1=C(c2cncc(F)c2)C(c2ccc(OCCN3CC(CF)C3)cc2)Oc2ccc(O)cc21 (stereo not drawn) [Example 43, 2-{4-[2-(3-Fluoromethyl-azetidin-1-yl)-ethoxy]-phenyl}-3-(5-fluoro-pyridin-3-yl)-4-methyl-2H-chromen-6-ol]
99.2	CC1=C(c2cncc(C)c2)C(c2ccc(OCCN3CC(CF)C3)cc2)Oc2ccc(O)cc21 (stereo not drawn) [Example 37, 2-{4-[2-(3-Fluoromethyl-azetidin-1-yl)-ethoxy]-phenyl}-4-methyl-3-(5-methyl-pyridin-3-yl)-2H-chromen-6-ol]
96.4	CC1=C(c2ncccc2C)C(c2ccc(OCCN3CC(CF)C3)cc2)Oc2ccc(O)cc21 (stereo not drawn) [Example 33, 2-{4-[2-(3-Fluoromethyl-azetidin-1-yl)-ethoxy]-phenyl}-4-methyl-3-(3-methyl-pyridin-2-yl)-2H-chromen-6-ol]
97.3	CC1=C(/C=C/CO)C(c2ccc(OCCN3CC(CF)C3)cc2)Oc2ccc(O)cc21 (stereo not drawn) [Example 52, 2-[4-[2-[3-(fluoromethyl)azetidin-1-yl]ethoxy]phenyl]-3-[(E)-3-hydroxyprop-1-enyl]-4-methyl-2H-chromen-6-ol]
